Data: paper PMC2632993, “Conformational changes in α7 acetylcholine receptors underlying allosteric modulation by divalent cations” (BMC Pharmacology, 2009)

Columns and labels:
Assay in all cases: MTSEA thiol modification rate (SCAM) from ACh-evoked currents in oocytes
Type in all cases: cell-based, chick
Conditions in all cases: 10 mM Ba^2+
[1] = molecular target: α7 AChR E^172C mutant (C^115A/L^247T background) (Gallus gallus, UniProt P22770, C138A/E195C/L270T)
Method: (§1) ACh-evoked current amplitudes decreased following brief, repeated exposure to a limiting concentration of MTSEA (5 μM, 15 seconds). To ensure that the modification reactions were complete, all rate measurements included a final prolonged application of ~100-fold higher concentrations of MTSEA (Fig. 3A and 3B, right). Currents measured following this application represent the endpoint of the reaction between MTSEA and receptors. When the same protocol included Ba^2+ pretreatment and co-application with MTSEA (see Methods), the decreases in current amplitudes were slowed but the same endpoint was obtained (Fig. 3B). Normalized current amplitudes were plotted as a function of the cumulative time of exposure to MTSEA, and pseudo first-order rates were extracted from the single-exponential fits (Fig. 3C).
(§2) Figure 3 Barium slows the rate of MTSEA modification at M^37C. Example of experimental paradigm used to assess Ba^2+ effects on modification rates. […] Endpoints of MTSEA modification are determined by prolonged application of 500 μM MTSEA (right). (B) The same protocol, including Ba^2+ pretreatment and co-application with MTSEA. Current traces are truncated in both (A) and (B) between consecutive MTSEA applications; in all cases the currents were allowed to return to baseline prior to the next application of MTSEA ± ACh. (C) Peak current amplitudes from (A) and (B) are normalized and plotted versus total MTSEA exposure time. Data from this single experiment (no error bars) are fitted to a single-exponential decay (solid line) to extract an apparent pseudo first-order rate constant. The pseudo first-order rate constants calculated in this experiment were 0.011 s^-1 and 0.0019 s^-1 for control (A) and +Ba^2+ (B) measurements, respectively. Second-order rate constants are calculated from these values (Figures 4–6; Table 2).
(§3) Oocytes were superfused in normal extracellular solution containing a reduced Ca^2+ concentration (ESLC; 96 mM NaCl, 2 mM KCl, 1 mM MgCl2, 0.1 mM CaCl2, and 10 mM HEPES, pH 7.5). This solution minimized Ca^2+ influx and eliminated Ca^2+-activated chloride currents. Two-electrode voltage clamp was performed with a GeneClamp 500B controlled by pCLAMP8 software (Molecular Devices, Sunnyvale, CA). Electrodes were filled with 3 M KCl contacting Ag-AgCl wires and had resistances of 0.5 to 2.0 MΩ. Currents were recorded at a constant holding potential of -60 mV. Currents were low pass filtered at 50 Hz and sampled at 100 Hz. Agonist dose-response curves were obtained as described previously, and data were fit to the Hill equation using Origin software (Microcal Software, Northampton, MA).
(§4) MTSEA was prepared daily in distilled water and stored on ice. Stock solution was diluted to the appropriate working concentration in ESLC immediately before each application. […] The limiting dose, yielding 20–40% of the maximal MTSEA effect, was identified for each mutant. […] To measure the effect of Ba^2+ on modification rates we pre-applied 10 mM Ba^2+ for 30 seconds prior to co-application of 10 mM Ba^2+ plus MTSEA. This concentration of Ba^2+ is equivalent to an approximate […] for the modulatory effects in both parental and mutant AChRs. Kinetic data were analyzed as described previously; rate data were fit to a single exponential to extract a pseudo-first order rate constant; this was divided by the MTSEA concentration used to determine the second order rate constant for thiol modification.

[2] = molecular target: α7 AChR E^44C mutant (C^115A/L^247T background) (Gallus gallus, UniProt P22770, C138A/E67C/L270T)
Method: as §1, §2, §3, §4

[3] = molecular target: α7 AChR M^37C mutant (C^115A/L^247T background) (Gallus gallus, UniProt P22770, C138A/L270T/M60C)
Method: as §1, §2, §3, §4

[4] = molecular target: T1, α7 AChR M^40C mutant (C^115A/L^247T background) (Gallus gallus, UniProt P22770, C138A/L270T/M63C)
T1 construct: expressed in transfected cells; host or cells: Xenopus laevis oocytes injected with cRNA
Method: as §1, §2, §3, §4

[5] = molecular target: α7 AChR M^40C/E^172Q mutant (C^115A/L^247T background) (Gallus gallus, UniProt P22770, C138A/E195Q/L270T/M63C)
Method: as §1, §2, §3, §4

[6] = molecular target: α7 AChR N^170C mutant (C^115A/L^247T background) (Gallus gallus, UniProt P22770, C138A/L270T/N193C)
Method: as §1, §2, §3, §4

[7] = molecular target: α7 AChR N^52C mutant (C^115A/L^247T background) (Gallus gallus, UniProt P22770, C138A/L270T/N75C)
Method: as §1, §2, §3, §4

## [Ba+2].[Cl-].[Cl-] [Ba^2+, BaCl2]
[1]
  effect of Ba^2+ on MTSEA modification rate: significant Ba^2+-dependent decreases
[2]
  effect of Ba^2+ on MTSEA modification rate: significant Ba^2+-dependent decreases
[3]
  effect of Ba^2+ on MTSEA modification rate: significant decreases
[4]
  effect of Ba^2+ on MTSEA modification rate: significant decreases
[5]
  effect of Ba^2+ on MTSEA modification rate: significant slowing
[6]
  effect of Ba^2+ on MTSEA modification rate: the same as that measured in MTSEA alone
[7]
  effect of Ba^2+ on MTSEA modification rate: no significant effect
